This note sets out measurements from patent publication US8357385B2, “Combination therapy for the treatment of bacterial infections” (Interface Biologics Inc., priority 2008, dated 2013).

Values after ≈ are worked out from the molar mass of the structure shown. Read-outs that look alike come from different tables or passages of the source. Peptide text beside a SMILES is read from it.

Holding throughout (format): cell-based
For experiment [1], the system named is P. Auregenosa. The experiment in a line: organism not typed. How it is done: (§1) Broth dilution method was used to measure quantitatively the in vitro activity of an antimicrobial agent against a given bacterial isolate. First, a series of tubes/wells were prepared with a broth medium to which various concentrations of the antimicrobial agents were added. The tubes/wells were then inoculated with standardized suspension of the test organism. After overnight incubation at 35±2° C., the tests were examined and the minimum inhibitory concentration (MIC) was determined. The procedures were performed under aseptic conditions. Stock culture: Stock cultures were maintained in Mueller Hinton Broth containing 15% Glycerol and stored at −80° C. Stock cultures were sub-cultured on to Mueller Hinton Agar (MHA), and incubated overnight at 37° C. […] Washing of cells: the cells were washed with PBS (pH 7.1) by centrifuging at 3000 rpm for 10 minutes. A cell suspension in Mueller Hinton broth (MHB) having a turbidity equivalent to a 0.5 McFarland turbidity standard was prepared using a Beckman Coulter DU 800 Spectrophotometer measuring at 600 nm wavelength. This is a suspension containing approximately […] of microbe. The suspension was diluted in MH broth so that, after dilution, the tube contained approximately 5×10^6 CFU/mL, and after inoculation, each well contains approximately 5×10^5 CFU/mL. Broth dilution procedure: small volumes of MH broth dispensed in sterile, polystyrene, non-pyrogenic tissue culture plates, 96 well, flat bottoms with low evaporation lid were prepared (each well contained 0.1 mL of MH broth) followed by the final two fold dilutions of antimicrobial agent dispensed volumetrically into the broth. […] Inoculation: each well of a microdilution plate was inoculated. The purity of the inoculum suspension was checked by sub-culturing an aliquot on to MH agar plate. Colony counts on inoculum suspensions were performed periodically, to ensure that the final inoculum concentration was approximately […]. […] To prevent drying, each plate was sealed with parafilm and the plates were kept in a moist chamber while incubating at 37° C. overnight, in a shaking incubator. Determining MIC endpoints: The MIC is defined as the lowest concentration of an antimicrobial that will inhibit growth of a microorganism. The in plate dilution method the endpoint is detected by the unaided eye.

Experiment [2] deals with S. Aureus. The experiment in a line: microbe, parasite or virus in culture. How it is done: as §1
In experiment [3] the test system is E. coli. Kind of experiment: microbe, parasite or virus in culture. How it is done: as §1
In experiment [4] the test system is C. Albicans. Kind of experiment: Broth dilution MIC against C. Albicans. The following applies: Candida albicans, Monotherapy, overnight incubation. How it is done: Broth dilution method was used to measure quantitatively the in vitro activity of an antimicrobial agent against a given bacterial isolate. First, a series of tubes/wells were prepared with a broth medium to which various concentrations of the antimicrobial agents were added. The tubes/wells were then inoculated with standardized suspension of the test organism. After overnight incubation at 35±2° C., the tests were examined and the minimum inhibitory concentration (MIC) was determined. The procedures were performed under aseptic conditions. Stock culture: Stock cultures were maintained in Mueller Hinton Broth containing 15% Glycerol and stored at −80° C. Stock cultures were sub-cultured on to Mueller Hinton Agar (MHA), and incubated overnight at 37° C. […] Washing of cells: the cells were washed with PBS (pH 7.1) by centrifuging at 3000 rpm for 10 minutes. A cell suspension in Mueller Hinton broth (MHB) having a turbidity equivalent to a 0.5 McFarland turbidity standard was prepared using a Beckman Coulter DU 800 Spectrophotometer measuring at 600 nm wavelength. This is a suspension containing approximately […] of microbe. The suspension was diluted in MH broth so that, after dilution, the tube contained approximately 5×10^6 CFU/mL, and after inoculation, each well contains approximately 5×10^5 CFU/mL. Broth dilution procedure: small volumes of MH broth dispensed in sterile, polystyrene, non-pyrogenic tissue culture plates, 96 well, flat bottoms with low evaporation lid were prepared (each well contained 0.1 mL of MH broth) followed by the final two fold dilutions of antimicrobial agent dispensed volumetrically into the broth. […] Inoculation: each well of a microdilution plate was inoculated. The purity of the inoculum suspension was checked by sub-culturing an aliquot on to MH agar plate. Colony counts on inoculum suspensions were performed periodically, to ensure that the final inoculum concentration was approximately 5×10^6 CFU/mL. […] The in plate dilution method the endpoint is detected by the unaided eye.
On the technique in general: Broth dilution looks for growth in wells or tubes with falling amounts of substance.

Where [5] appears, read: Monotherapy, P. Auregenosa, broth dilution, overnight incubation, read-out: MIC.
[6] abbreviates: Staphylococcus aureus, Monotherapy, S. Aureus, broth dilution, overnight incubation, read-out: MIC.
Setting [7] is: Escherichia coli, Monotherapy, E. coli, broth dilution, overnight incubation, read-out: MIC.
Where [8] appears, read: Monotherapy, P. Auregenosa, broth dilution, overnight incubation.
[9] abbreviates: Monotherapy, E. coli, broth dilution, overnight incubation.

With `CC1(C)S[C@@H]2[C@H](NC(=O)[C@H](N)c3ccc(O)cc3)C(=O)N2[C@H]1C(=O)O` [Amoxicillin], the results for the MIC in experiment [1] (setting [5]) and in experiment [2] (setting [6]) were 250 to 500 µg/mL (≈ 684 to 1370 µM) and 31.2 to 62.5 µg/mL (≈ 85.5 to 171 µM), respectively.

On to `C[C@H]1[C@H](NC(=O)/C(=N\OC(C)(C)C(=O)O)c2csc(N)n2)C(=O)N1S(=O)(=O)O` [Aztreonam], for which the MIC in experiment [1] (setting [5]) was in the range of 15.6 to 19 µg/mL (≈ 35.9 to 43.6 µM); in experiment [3] (setting [7]) it was 0.078 to 0.097 µg/mL (≈ 0.179 to 0.223 µM); in experiment [2] (setting [6]) it was 625 to 1250 µg/mL (≈ 1440 to 2870 µM).

For the compound `CC[C@H](C)[C@H](N)C1=N[C@H](C(=O)N[C@@H](CC(C)C)C(=O)N[C@H](CCC(=O)O)C(=O)N[C@H](C(=O)N[C@H]2CCCCNC(=O)[C@H](CC(N)=O)NC(=O)[C@@H](CC(=O)O)NC(=O)[C@H](Cc3cnc[nH]3)NC(=O)[C@@H](Cc3ccccc3)NC(=O)[C@H]([C@@H](C)CC)NC(=O)[C@@H](CCCN)NC2=O)[C@@H](C)CC)CS1` [Bacitracin] (HELM PEPTIDE1{[CC[C@H](C)[C@H](N)C1=N[C@H](C(=O)[*:2])CS1].L.[dE].I.K.[NCCC[C@@H](N[*:1])C(=O)[*:2]].I.[dF].H.[dD].N}$PEPTIDE1,PEPTIDE1,5:R3-11:R2$$$V2.0), the MIC in experiment [1] was 4000 to 5000 µg/mL; in experiment [3] it was 1000 to 1250 µg/mL; in experiment [2], 35 to 40 µg/mL.

`[H]/N=C(\N/C(=N/[H])NCCCCCCNC(=N)NC(=N)Nc1ccc(Cl)cc1)Nc1ccc(Cl)cc1` [Chlorhexidine]: the MIC in experiment [4] fell in the range of 3.12 to 4 µg/mL (≈ 6.18 to 7.91 µM); in experiment [1] (setting [5]), 4 to 5 µg/mL (≈ 7.91 to 9.89 µM); in experiment [3] (setting [7]), 3.13 to 4 µg/mL (≈ 6.19 to 7.91 µM); in experiment [2] (setting [6]) it was 3.12 to 4 µg/mL (≈ 6.18 to 7.91 µM).

`O=C(O)c1cn(C2CC2)c2cc(N3CCNCC3)c(F)cc2c1=O` [Ciprofloxacin]: the MIC in experiment [4] is over 2.5 µg/mL; in experiment [1] (setting [5]) it was 0.156 to 0.25 µg/mL (≈ 0.471 to 0.754 µM); in experiment [3] (setting [7]), 0.005 to 0.0078 µg/mL (≈ 0.0151 to 0.0235 µM); in experiment [2] (setting [6]), 0.156 to 0.2 µg/mL (≈ 0.471 to 0.604 µM).

Regarding `Clc1ccc(COC(Cn2ccnc2)c2ccc(Cl)cc2Cl)c(Cl)c1` (stereo not drawn) [Miconazole], the MIC in experiment [4] lay within 1.4 to 2.8 µg/mL (≈ 3.36 to 6.73 µM); in experiment [2] (setting [6]) it was 45 to 90 µg/mL (≈ 108 to 216 µM).

Compound `CN[C@H](CC(C)C)C(=O)N[C@H]1C(=O)N[C@@H](CC(N)=O)C(=O)N[C@H]2C(=O)N[C@H]3C(=O)N[C@H](C(=O)N[C@H](C(=O)O)c4cc(O)cc(O)c4-c4cc3ccc4O)[C@H](O)c3ccc(c(Cl)c3)Oc3cc2cc(c3O[C@@H]2O[C@H](CO)[C@@H](O)[C@H](O)[C@H]2O[C@H]2C[C@](C)(N)[C@H](O)[C@H](C)O2)Oc2ccc(cc2Cl)[C@H]1O` [Vancomycin] displayed an MIC in experiment [3] (Escherichia coli) of 190 to 380 µg/mL (≈ 131 to 262 µM).

With Gentamicin, the values for the MIC in experiment [1] (setting [8]) and in experiment [3] (setting [9]) were 0.625 to 1.25 µg/mL and 1.25 to 2.5 µg/mL, respectively.

For Polymixin B, the MIC in experiment [1] (setting [8]) was in the range of 3.125 to 5.0 µg/mL; in experiment [3] (setting [9]), 7.8 to 10 µg/mL; in experiment [2] (Monotherapy, S. Aureus, broth dilution, overnight incubation), 62.5 to 100.0 µg/mL.
